What was measured:
Assay type in all cases: physicochemical
[1] = Dynamic Vapor Sorption (DVS) on Pattern D
[2] = Solid form stability on heating (XRPD, hot stage microscopy); details: hydrochloride salt trihydrate
Description: Amorphous material was generated through ball milling in the experiments with the goal to obtain a new crystalline form. […] Pattern D was determined to be a channel trihydrate, the form identification was confirmed by Single Crystal XRD.
FIG. 5 is an overlay of XRPD spectra of Pattern D heated to 90° C. and cooled back to room temperature; Pattern D heated to 150° C. and cooled back to room temperature; as well as Pattern C and Pattern D reference spectra.
FIG. 6 is an image of Pattern D heated to different temperatures obtained using hot stage microscopy (HSM).

[3] = Water solubility of crystalline forms measured by HPLC
Description: Water solubility of Pattern D was measured by HPLC to determine how much the water solubility drops between Pattern C and Pattern D. To measure the solubility of Pattern D in H2O, ˜150 mg of Pattern D was slurried for 2 weeks at RT in 1 mL of H2O.

mass gained in DVS ([1]; at 80% RH): ~10.45%
water re-adsorbed after desolvation in DVS ([1]; by RH of 20%, after loss of moisture at RH close to 0): approximately 10.5%
form change post DVS (XRPD) ([1]; post DVS): no clear form change
form conversion on heating (XRPD) ([2]; heated to 90° C. and cooled back to room temperature): no form conversion
form on further heating (XRPD) ([2]; heated to 150° C. and cooled back to room temperature): turns amorphous
form conversion after slurry in H2O (XRPD) ([3]; 2-week slurry in H2O at RT): no form conversion
solubility at 2 weeks ([3]; water, thermodynamic from solid): 77.2 mg/mL
Structure (SMILES): CC(C)(C)NC(=O)CN1CCC(CNC(=O)c2cc(F)cc(Cl)c2)CC1.Cl [Pattern D, N-((1-(2-(tert-butylamino)-2-oxoethyl)piperidin-4-yl)methyl)-3-chloro-5-fluorobenzamide hydrochloride salt trihydrate]

From patent US20260092036A1, “CRYSTALLINE SALTS OF A T-TYPE CALCIUM CHANNEL MODULATOR AND METHODS OF USE THEREOF” (Praxis Precision Medicines, Inc., priority 2023, published 2026)
